# What was measured:
# Type in all cases: cell-based
# TLR2 [1] = molecular target: T1, TLR2 (Homo sapiens, UniProt O60603); assay: TLR2 in vitro functional assay, cytokine release from human monocytic cell line THP-1; settings: THP-1 human monocytic cell line, average of all runs
# Experimental: (§1) Cells of the immune system respond to TLR agonists in part by secreting cytokines. Functional assays for TLR2 agonists measure cytokine release from purified immune cells or immortalized cell lines derived from immune cells. Cytokine release is measured by standard ELISA approaches or multiplexed analysis using the Meso Scale Discovery (MSD) platform.
# Following assay measurements utilizing either HEK-Blue detection or cytokine release, all data is analyzed with the GraphPad Prism8 statistical package to determine EC50, binding and activity metrics for the TLR2 modulators. […]
# (§2) Numerous cell lines derived from various cell types can respond to TLR2 agonists with stereotyped cytokine and chemokine secretion. In particular, cell lines derived from macrophages respond robustly to TLR2 agonists by secreting a wide array of cytokines, including (but not limited to) TNF-alpha, IL-1, IL-10 and IL-12. The human monocytic cell line THP-1, the mouse macrophage line RAW-264.7, and the rat macrophage line NR8383 were used. For each assay, the respective cell lines were plated into 96-well plates overnight and then treated the following day with various TLR2-engaging compounds at varying concentrations. The next day, supernatants were collected and assayed by multiplex immunodetection for cytokines released (MSD detection kits for respective species).
# (§3) Data provided in Table 5 is generated using protocols described in Example 45 and 46.
# TLR2 [2] = molecular target: T1, TLR2; assay: TLR2 agonist screening assay, HEK-Blue TLR2 reporter cell line (NF-kB-driven SEAP, absorbance at 600 nm); design: host or cells: HEK-293 (HEK-Blue TLR2 reporter cell line); settings: HEK-Blue TLR2 reporter cells, agonist mode
# Summary of the method: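 Read-out: SEAP colour change, A600, after overnight agonist exposure. Cells: HEK-293 overexpressing TLR2, NF-kB-SEAP reporter, ~40,000/well, plated 16-24 h prior.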
# TLR2 [3] = molecular target: T2, TLR2 (Mus musculus, UniProt Q9QUN7); assay: TLR2 functional assay, cytokine release from RAW 264.7 mouse macrophage cell line; settings: average of all runs
# T2 construct: endogenous in cells; host or cells: RAW 264.7
# T2 sequence (Q9QUN7 25-784): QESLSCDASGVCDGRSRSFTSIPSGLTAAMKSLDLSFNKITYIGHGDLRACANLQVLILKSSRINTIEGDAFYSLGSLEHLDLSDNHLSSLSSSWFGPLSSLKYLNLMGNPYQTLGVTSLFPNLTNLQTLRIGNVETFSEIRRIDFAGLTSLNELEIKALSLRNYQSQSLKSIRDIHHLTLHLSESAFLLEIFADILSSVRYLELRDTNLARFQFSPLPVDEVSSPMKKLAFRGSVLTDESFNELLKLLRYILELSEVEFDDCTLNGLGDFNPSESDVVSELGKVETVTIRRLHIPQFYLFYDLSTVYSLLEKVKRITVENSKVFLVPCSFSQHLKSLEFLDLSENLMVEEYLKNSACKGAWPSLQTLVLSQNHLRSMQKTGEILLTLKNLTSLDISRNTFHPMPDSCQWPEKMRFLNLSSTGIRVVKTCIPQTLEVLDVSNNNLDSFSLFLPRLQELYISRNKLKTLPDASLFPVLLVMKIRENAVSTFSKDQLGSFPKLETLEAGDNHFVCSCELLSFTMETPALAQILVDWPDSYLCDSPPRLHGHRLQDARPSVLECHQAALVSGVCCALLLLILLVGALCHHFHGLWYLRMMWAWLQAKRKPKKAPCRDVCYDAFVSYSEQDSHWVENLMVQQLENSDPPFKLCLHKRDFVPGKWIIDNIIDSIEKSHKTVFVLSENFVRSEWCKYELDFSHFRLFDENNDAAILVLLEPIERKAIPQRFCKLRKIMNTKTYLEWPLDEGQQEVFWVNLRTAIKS
# Experimental: as §1
# Purified primary human peripheral blood mononuclear cells or RAW 264.7 mouse macrophage cell line cells are plated at approximately 40,000 cells per well. Cells are treated with agonist compounds and assays 6-24 hours post-treatment for cytokines released into the cell culture media.
# Following assay measurements utilizing either HEK-Blue detection or cytokine release, all data is analyzed with the GraphPad Prism8 statistical package to determine EC50, binding and activity metrics for the TLR2 modulators.
# as §2, §3
# T1 sequence (O60603 21-784): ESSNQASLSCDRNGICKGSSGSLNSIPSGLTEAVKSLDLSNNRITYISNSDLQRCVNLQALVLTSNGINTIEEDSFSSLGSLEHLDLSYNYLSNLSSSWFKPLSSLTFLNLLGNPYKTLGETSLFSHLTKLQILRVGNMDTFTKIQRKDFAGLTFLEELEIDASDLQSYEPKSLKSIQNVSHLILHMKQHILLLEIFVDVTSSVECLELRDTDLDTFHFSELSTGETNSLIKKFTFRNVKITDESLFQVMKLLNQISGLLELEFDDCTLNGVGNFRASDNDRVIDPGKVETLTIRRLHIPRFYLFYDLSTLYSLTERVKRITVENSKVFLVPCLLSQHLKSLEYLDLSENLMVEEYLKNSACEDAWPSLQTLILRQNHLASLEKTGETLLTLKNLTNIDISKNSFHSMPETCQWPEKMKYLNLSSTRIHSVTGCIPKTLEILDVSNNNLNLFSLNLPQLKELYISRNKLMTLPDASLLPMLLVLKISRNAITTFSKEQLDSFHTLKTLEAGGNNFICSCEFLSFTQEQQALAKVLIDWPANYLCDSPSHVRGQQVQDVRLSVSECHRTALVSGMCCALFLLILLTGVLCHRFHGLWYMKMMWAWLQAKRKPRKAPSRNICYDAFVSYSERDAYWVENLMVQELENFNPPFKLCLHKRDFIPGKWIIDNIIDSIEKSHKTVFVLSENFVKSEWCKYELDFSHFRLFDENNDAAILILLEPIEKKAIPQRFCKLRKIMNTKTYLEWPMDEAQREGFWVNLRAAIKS
Structure (SMILES),EC50 (TLR2 [1]),EC50 (TLR2 [2]; average of all runs (Table 3)),EC50 (TLR2 [3]),EC50 (TLR2 [2]; average of all runs (Table 4))
"CCCCCCCCCCCCCCNC(=O)C1CN(C(=O)c2ccc(C(=O)N3C[C@@H](C(=O)N[C@H]4C[C@@H]4c4ccccc4)[C@H](C(=O)N[C@H]4C[C@@H]4c4ccccc4)C3)cc2)CCN1 (mixture of isomers) [Compound 054, (3S,4S)—N3,N4-bis ((1S,2R)-2-phenylcyclopropyl)-1-(4-(3-(tetradecylcarbamoyl)piperazine-1-carbonyl)benzoyl) pyrrolidine-3,4-dicarboxamide]",0.1 to 50 nM,51 to 350 nM,–,–
"CCCCCCCCC(=O)N[C@@H](Cn1cc(-c2ccc(C(=O)N3C[C@@H](C(=O)N[C@H]4C[C@@H]4c4ccccc4)[C@H](C(=O)N[C@H]4C[C@@H]4c4ccccc4)C3)cc2)nn1)C(=O)NCCCCCC [Compound 212, (3S,4S)-1-(4-(1-((S)-3-(hexylamino)-2-nonanamido-3-oxopropyl)-1H-1,2,3-triazol-4-yl)benzoyl)-N3,N4-bis ((1S,2R)-2-phenylcyclopropyl) pyrrolidine-3,4-dicarboxamide]",–,–,351 to 1000 nM,0.1 to 50 nM
"CCCCCCCCCC(=O)N[C@@H](Cn1cc(-c2ccc(C(=O)N3C[C@@H](C(=O)N[C@H]4C[C@@H]4c4ccccc4)[C@H](C(=O)N[C@H]4C[C@@H]4c4ccccc4)C3)cc2)nn1)C(=O)NCCCCCC [Compound 213, (3S,4S)-1-(4-(1-((S)-2-decanamido-3-(hexylamino)-3-oxopropyl)-1H-1,2,3-triazol-4-yl)benzoyl)-N3,N4-bis((1S,2R)-2-phenylcyclopropyl)pyrrolidine-3,4-dicarboxamide]",–,–,51 to 350 nM,0.1 to 50 nM
"CCCCCCNC(=O)[C@H](Cn1cnc(-c2ccc(C(=O)N3C[C@@H](C(=O)N[C@H]4C[C@@H]4c4ccccc4)[C@H](C(=O)N[C@H]4C[C@@H]4c4ccccc4)C3)cc2)c1)NC(=O)CCCCCC [Compound 214, (3S,4S)-1-(4-(1-((S)-2-heptanamido-3-(hexylamino)-3-oxopropyl)-1H-imidazol-4-yl)benzoyl)-N3,N4-bis((1S,2R)-2-phenylcyclopropyl)pyrrolidine-3,4-dicarboxamide]",–,–,0.1 to 50 nM,51 to 350 nM
"CCCCCCCCCCCOC(=O)N[C@H]1CN(C(=O)c2ccc(C(=O)N3C[C@@H](C(=O)N[C@H]4C[C@@H]4c4ccccc4)[C@H](C(=O)N[C@H]4C[C@@H]4c4ccccc4)C3)cc2)C[C@@H]1OC [Compound 215, undecyl ((3S,4S)-1-(4-((3S,4S)-3,4-bis(((1S,2R)-2-phenylcyclopropyl)carbamoyl)pyrrolidine-1-carbonyl)benzoyl)-4-methoxypyrrolidin-3-yl)carbamate]",–,–,> 1000 nM,51 to 350 nM
"CCCCCCCCCCCCOC(=O)N[C@H]1CN(C(=O)c2ccc(C(=O)N3C[C@@H](C(=O)N[C@H]4C[C@@H]4c4ccccc4)[C@H](C(=O)N[C@H]4C[C@@H]4c4ccccc4)C3)cc2)C[C@@H]1OC [Compound 216, dodecyl ((3S,4S)-1-(4-((3S,4S)-3,4-bis(((1S,2R)-2-phenylcyclopropyl)carbamoyl)pyrrolidine-1-carbonyl)benzoyl)-4-methoxypyrrolidin-3-yl)carbamate]",–,–,> 1000 nM,0.1 to 50 nM
"CCCCCCCCCCCCCOC(=O)N[C@H]1CN(C(=O)c2ccc(C(=O)N3C[C@@H](C(=O)N[C@H]4C[C@@H]4c4ccccc4)[C@H](C(=O)N[C@H]4C[C@@H]4c4ccccc4)C3)cc2)C[C@@H]1OC [Compound 217, tridecyl ((3S,4S)-1-(4-((3S,4S)-3,4-bis(((1S,2R)-2-phenylcyclopropyl)carbamoyl)pyrrolidine-1-carbonyl)benzoyl)-4-methoxypyrrolidin-3-yl)carbamate]",–,–,> 1000 nM,0.1 to 50 nM
"CCCCCCCC(=O)N[C@@H](Cn1cc(-c2ccc(C(=O)N3C[C@@H](C(=O)N[C@H]4C[C@@H]4c4ccccc4)[C@H](C(=O)N[C@H]4C[C@@H]4c4ccccc4)C3)cc2)nn1)C(=O)NCCCCCC [Compound 219, (3S,4S)-1-(4-(1-((S)-3-(hexylamino)-2-octanamido-3-oxopropyl)-1H-1,2,3-triazol-4-yl)benzoyl)-N3,N4-bis((1S,2R)-2-phenylcyclopropyl)pyrrolidine-3,4-dicarboxamide]",–,–,0.1 to 50 nM,0.1 to 50 nM
"CCCCCCCNC(=O)N[C@@H](Cn1cc(-c2ccc(C(=O)N3C[C@@H](C(=O)N[C@H]4C[C@@H]4c4ccccc4)[C@H](C(=O)N[C@H]4C[C@@H]4c4ccccc4)C3)cc2)nn1)C(=O)NCCCCCC [Compound 220, (3S,4S)-1-(4-(1-((S)-2-(3-heptylureido)-3-(hexylamino)-3-oxopropyl)-1H-1,2,3-triazol-4-yl)benzoyl)-N3,N4-bis((1S,2R)-2-phenylcyclopropyl)pyrrolidine-3,4-dicarboxamide]",–,–,0.1 to 50 nM,0.1 to 50 nM
"CCCCCCCCNC(=O)N[C@@H](Cn1cc(-c2ccc(C(=O)N3C[C@@H](C(=O)N[C@H]4C[C@@H]4c4ccccc4)[C@H](C(=O)N[C@H]4C[C@@H]4c4ccccc4)C3)cc2)nn1)C(=O)NCCCCCC [Compound 221, (3S,4S)-1-(4-(1-((S)-3-(hexylamino)-2-(3-octylureido)-3-oxopropyl)-1H-1,2,3-triazol-4-yl)benzoyl)-N3,N4-bis((1S,2R)-2-phenylcyclopropyl)pyrrolidine-3,4-dicarboxamide]",–,–,0.1 to 50 nM,0.1 to 50 nM
"CCCCCCNC(=O)[C@H](CNC(=O)c1ccc(C(=O)N2C[C@@H](C(=O)N[C@H]3C[C@@H]3c3ccccc3)[C@H](C(=O)N[C@H]3C[C@@H]3c3ccccc3)C2)cc1)NC(=O)N[C@H]1C[C@@H]1c1ccccc1 [Compound 222, (3S,4S)-1-(4-(((S)-3-(hexylamino)-3-oxo-2-(3-((1S,2R)-2-phenylcyclopropyl)ureido)propyl)carbamoyl)benzoyl)-N3,N4-bis((1S,2R)-2-phenylcyclopropyl)pyrrolidine-3,4-dicarboxamide]",–,–,51 to 350 nM,0.1 to 50 nM
"O=C(N[C@@H](CNC(=O)c1ccc(C(=O)N2C[C@@H](C(=O)N[C@H]3C[C@@H]3c3ccccc3)[C@H](C(=O)N[C@H]3C[C@@H]3c3ccccc3)C2)cc1)C(=O)N[C@H]1C[C@@H]1c1ccccc1)N[C@H]1C[C@@H]1c1ccccc1 [Compound 223, (3S,4S)-1-(4-(((S)-3-oxo-3-(((1S,2R)-2-phenylcyclopropyl)amino)-2-(3-((1S,2R)-2-phenylcyclopropyl)ureido)propyl)carbamoyl)benzoyl)-N3,N4-bis((1S,2R)-2-phenylcyclopropyl)pyrrolidine-3,4-dicarboxamide]",–,–,351 to 1000 nM,> 1000 nM
"CO[C@H]1CN(C(=O)c2ccc(C(=O)N3C[C@@H](C(=O)N[C@H]4C[C@@H]4c4ccccc4)[C@H](C(=O)N[C@H]4C[C@@H]4c4ccccc4)C3)cc2)C[C@@H]1NC(=O)N[C@H]1C[C@@H]1c1ccccc1 [Compound 224, (3S,4S)-1-(4-((3S,4S)-3-methoxy-4-(3-((1S,2R)-2-phenylcyclopropyl)ureido)pyrrolidine-1-carbonyl)benzoyl)-N3,N4-bis((1S,2R)-2-phenylcyclopropyl)pyrrolidine-3,4-dicarboxamide]",–,–,> 1000 nM,> 1000 nM
"CCCCCCCOC(=O)N[C@@H](CNC(=O)c1ccc(C(=O)N2C[C@@H](C(=O)N[C@H]3C[C@@H]3c3ccccc3)[C@H](C(=O)N[C@H]3C[C@@H]3c3ccccc3)C2)cc1)C(=O)NCCCCCC [Compound 227, heptyl ((S)-3-(4-((3S,4S)-3,4-bis(((1S,2R)-2-phenylcyclopropyl)carbamoyl)pyrrolidine-1-carbonyl)benzamido)-1-(hexylamino)-1-oxopropan-2-yl)carbamate]",–,–,> 1000 nM,0.1 to 50 nM
"CCCCCCCCOC(=O)N[C@@H](CNC(=O)c1ccc(C(=O)N2C[C@@H](C(=O)N[C@H]3C[C@@H]3c3ccccc3)[C@H](C(=O)N[C@H]3C[C@@H]3c3ccccc3)C2)cc1)C(=O)NCCCCCC [Compound 228, octyl ((S)-3-(4-((3S,4S)-3,4-bis(((1S,2R)-2-phenylcyclopropyl)carbamoyl)pyrrolidine-1-carbonyl)benzamido)-1-(hexylamino)-1-oxopropan-2-yl)carbamate]",–,–,> 1000 nM,0.1 to 50 nM
"CCCCCCCCCOC(=O)N[C@@H](CNC(=O)c1ccc(C(=O)N2C[C@@H](C(=O)N[C@H]3C[C@@H]3c3ccccc3)[C@H](C(=O)N[C@H]3C[C@@H]3c3ccccc3)C2)cc1)C(=O)NCCCCCC [Compound 229, nonyl ((S)-3-(4-((3S,4S)-3,4-bis(((1S,2R)-2-phenylcyclopropyl)carbamoyl)pyrrolidine-1-carbonyl)benzamido)-1-(hexylamino)-1-oxopropan-2-yl)carbamate]",–,–,> 1000 nM,0.1 to 50 nM

# From patent publication US11951094B2, “TLR2 modulator compounds, pharmaceutical compositions and uses thereof” (Axial Therapeutics, Inc., priority 2020, dated 2024)
